Data from PubChem BioAssay AID1053147 (Broad Institute, 2014).

System: HepG2 BODIPY-LDL uptake, imaging, fold induction
Experiment: fold increase of hepatoma cell fluorescent LDL uptake – imaging, BODIPY-LDL, cherry-pick, set 2, dose response (AID 1053147)
Conditions: active compounds read high

## CN1C(=O)c2cc(NC(=O)c3ccc(C(F)(F)F)cc3)ccc2OC[C@@H]2O[C@H](CC(=O)NC3Cc4ccccc4C3)CC[C@@H]21
  fold induction x10: 10

## CN1C(=O)c2cc(NC(=O)c3ccc(C(F)(F)F)cc3)ccc2OC[C@@H]2O[C@@H](CC(=O)NC3Cc4ccccc4C3)CC[C@@H]21
  fold induction x10: 25
